The values that follow come from patent publication US20230218629A1, “THERAPEUTIC COMPOSITIONS AND METHODS FOR PREVENTION AND TREATMENT OF DIASTOLIC DYSFUNCTION” (AMBETEX PTY LTD, priority 2019, published 2023).

What all share (assay type): in vivo
For data set [1], the system named is Male C57BL6 mice. Description: Aβ40 administration study. The method, then: Aβ40 administration study: Lyophilised recombinant Aβ40 (Millipore) and scrambled control peptide (ScrAβ40; Millipore) were resuspended in 1% NH4OH and aliquoted at 200 ng/ml in H2O and stored at −80° C. for no longer than 4 weeks. Male C57BL6 mice were obtained from the Animal Resource Centre (Perth, Wash.) at 4 weeks of age and housed with 4 mice per cage on a 12 hr light/dark cycle at a temperature of 22° C. and a constant humidity with a normal rodent diet. At 12 weeks of age, mice were grouped according to body mass and composition, determined by EchoMRI. Mice were then administered 1 μg of recombinant Aβ40 or ScrAβ40 (n=12/group per cohort) by i.p. injection once/day for 5 wks. After 4 weeks of peptide administration, cardiac function was assessed by echocardiography as follows. Mice were anaesthetised with inhalation of 1.5% isoflurane anaesthesia and echocardiography was performed using the Phillips HD15 diagnostic ultrasound system with a 15 MHz linear-array transducer by an experienced veterinarian. The velocity of blood flow through the mitral valve was analysed using Doppler mode imaging. […] Doppler imaging was also utilised to measure the velocity of blood flow through the aortic valve. The measurements were then used to calculate the ejection time, peak aortic flow and heart rate. M-mode imaging of the left ventricle was used to measure the thickness of the inter-ventricular septum (IVS), left ventricular internal diameter (LVID) and left ventricular posterior wall (LVPW) in both diastole (d) and end-systole (s) as well as systolic measures such as ejection fraction and fractional shortening. An estimation of LV mass was calculated from the m-mode imaging by using the formula (1.05[LVIDd+LVPWd+IVSd]^3−[LVIDd]^3) by Troy et al. (1972). Mice were humanely killed by cervical dislocation 1 week later. Blood was obtained immediately following by cardiac puncture and the heart, and other tissues were immediately removed. Hearts were washed in ice cold PBS and weighed prior to being snap frozen in liquid nitrogen. Plasma Aβ40 was measured using a high sensitivity ELISA kit (Wako Diagnostics) and plasma that was diluted 1:10 with assay buffer.

Data set [2] deals with Male C57BL6 mice. Description: Aβ42 administration study: GTT with glucose tracers, cardiac metabolism.
Method: At 12 weeks of age, mice were grouped according to body mass and composition, determined by EchoMRI. […] An i.p. glucose tolerance test (GTT) was performed on the final treatment day following an overnight fast. Mice were administered 2 g/kg lean mass of glucose including radioactive glucose tracers, prepared as follows. 100 μl of 1 μCi/μl glucose analogue, [^3H]-2-deoxyglucose (2-DOG), and 500 μl of 200 μCi/mL U-^14C glucose were evaporated to dryness before redissolving the radioactive tracers in 1 mL of 50% glucose. This produced a 50% glucose solution containing 100 μCi/mL [^3H]-2-DOG and 100 μCi/mL U-^14C glucose. The tail tip of each mouse was cut off and the blood glucose concentration of a blood sample was measured using an AccuCheck II glucometer (Roche). The GTT was initiated via intraperitoneal injection of the radiolabelled glucose solution (2 g/kg body weight, 10 uCi/animal) into the overnight-fasted mice. Further blood samples were taken at 15, 30, 45, 60 and 90 minutes after the injection for the measurement of blood glucose. Blood samples (30 μl) were also taken from the tail tip at each time point and diluted in 100 μl of saline. These samples were then centrifuged and the supernatant collected. 50 μl of the supernatant was diluted in 500 μl of distilled water and then suspended in 4 mL of Ultima Gold XR scintillation fluid (Packard Bioscience). Blood radioactivity was determined at each time point by performing liquid scintillation counting on each solution using the Beckman scintillation counter (LS6000 SC). At the conclusion of the GTT, mice were killed via cervical dislocation. Blood was obtained immediately following by cardiac puncture and the heart, and other tissues were immediately removed. Hearts were washed in ice cold PBS and weighed prior to being snap frozen in liquid nitrogen. The heart (30 mg), epididymal fat pad (30 mg and quadriceps skeletal muscle (30 mg) were homogenised in 1.5 ml of distilled water. The homogenate was centrifuged at 3000 rpm for 10 min at 4° C. 400 μl of the supernatant was diluted into 1.6 mL of distilled water and then suspended in 14 mL of Ultima Gold XR scintillation fluid (Packard Bioscience). The radioactivity of each sample (from both [3H]-2-DOG6P and [^3H]-2-DOG) was determined by liquid scintillation counting using the Beckman scintillation counter (LS6000 SC). The ^3H radioactivity was used to measure glucose uptake into each tissue.
To determine the incorporation of U-^14C glucose into triglyceride and the total triglyceride content in the heart, an extraction of triglyceride was carried out using a chloroform/methanol mixture. Samples of heart (30 mg) were hand-homogenised in 2 mL of chloroform/methanol (2:1) and the homogeniser rinsed in a further 2 mL of chloroform/methanol (2:1), and the washings being added to the original extract in 10 mL tubes. The tubes were tightly capped and mixed on a rotator overnight to maximise extraction of the triglycerides. 2 ml of 0.6% saline was then added, to facilitate the separation of the organic and aqueous phases, after which the tubes were mixed thoroughly and then centrifuged at 2000 rpm for 10 minutes. […] The amount of U-^14C glucose clearance into the lipid fraction was measured by suspending 100 μl of the triglyceride solution in 5 mL of Ultima Gold XR scintillation fluid (Packard Bioscience), followed by scintillation counting using the Beckman scintillation counter (LS6000 SC).
For data set [3], the system named is Male C57BL6 mice. Description: Aβ42 administration study: cardiac function by echocardiography. The method, then:
After 4 weeks of peptide administration, cardiac function was assessed by echocardiography as follows. Mice were anaesthetised with inhalation of 1.5% isoflurane anaesthesia and echocardiography was performed using the Phillips HD15 diagnostic ultrasound system with a 15 MHz linear-array transducer by an experienced veterinarian. The velocity of blood flow through the mitral valve was analysed using Doppler mode imaging. […] Doppler imaging was also utilised to measure the velocity of blood flow through the aortic valve. The measurements were then used to calculate the ejection time, peak aortic flow and heart rate. M-mode imaging of the left ventricle was used to measure the thickness of the inter-ventricular septum (IVS), left ventricular internal diameter (LVID) and left ventricular posterior wall (LVPW) in both diastole (d) and end-systole (s) as well as systolic measures such as ejection fraction and fractional shortening. An estimation of LV mass was calculated from the m-mode imaging by using the formula (1.05[LVIDd+LVPWd+IVSd]^3−[LVIDd]^3) by Troy et al. (1972). Mice were humanely killed by cervical dislocation 1 week later. Blood was obtained immediately following by cardiac puncture and the heart, and other tissues were immediately removed. Hearts were washed in ice cold PBS and weighed prior to being snap frozen in liquid nitrogen.

Data set [4] deals with obese mice (HFD). Description: Verubecestat-High fat diet (HFD) treatment study. The method, then:
Verubecestat-High fat diet (HFD) treatment study: At 12 weeks of age, mice (n=30) were placed on a HFD with 43% of calories from fat (23.5% by weight; SF04-001 High Fat Rodent Diet Based on D12451, Specialty Feeds, Glen Forrest, Wash.). After 13 weeks of the diet period, echocardiography was performed on all mice to obtain pre-drug treatment measures of cardiac function. Mice were allocated to treatment groups so that measures of cardiac function and morphology were matched as best as possible. Verubecestat (MedChemExpress) was resuspended in 100% DMSO before being diluted in a hydroxypropyl cellulose solution to give a final solution containing 6.25 mg/mL Verubecestat in 10% hydroxypropyl cellulose and 5% DMSO. A vehicle solution containing 10% hydroxypropyl cellulose and 5% DMSO was also made. Aliquots of both drug and vehicle were stored at −80° C. until required. The HFD/Verubecestat group was administered 25 mg/kg of Verubecestat per day by oral gavage, while the HFD/control group received an equivalent volume of vehicle. Echocardiography was then performed following 4 weeks of the treatment period to obtain post-drug treatment measures of cardiac function. Following 5 weeks of the drug administration, mice were humanely killed via cervical dislocation and blood was immediately obtained via cardiac puncture and stored in a heparinised tube. The heart, epididymal fat pad, mesenteric fat pad, liver, quadricep, hind limb and brain were then immediately dissected. The heart was blotted prior to being weighed and all tissues were snap frozen in liquid nitrogen and stored at −80° C. Plasma Aβ species were measured using high sensitivity ELISA kits (Wako Diagnostics) and plasma that was diluted 1:10 with assay buffer.

On to “Aβ40: Lyophilised recombinant Aβ40 (Millipore), amyloid beta peptide”, for which the “plasma Aβ40” value in data set [1] (1 μg/day i.p., 5 weeks, vs ScrAβ40, FIG. 6A) is reported as “significantly increased”. In addition, the “E:A ratio” value in data set [1] (FIG. 6B) is given as “did not have any effect”. The DT result in data set [1] (FIG. 6C) was “did not have any effect”. The ejection fraction result in data set [1] (FIG. 6E) is “nor any effect”. Besides, the IVSd result in data set [1] (FIG. 6F) is on record as “no effect”. In addition, the LVIDd entry in data set [1] (FIG. 6G) is listed as “no effect”. Moreover, the LV mass result in data set [1] (FIG. 6H) is “no effect”.
Consider “Aβ42: Lyophilised recombinant Aβ42 (Millipore), amyloid beta peptide of 42 amino acids”, for which the “increase in plasma Aβ42 compared with administration of ScrAβ42” value in data set [2] (1 μg/day i.p., five weeks, FIG. 1A) is on record as “approximately 3 fold”. Moreover, in data set [2] (FIG. 1E), the “cardiac gene expression (inflammation, endoplasmic reticulum stress)” value is “gene expression changes indicative of cardiac stress responses”. In addition, the “whole body glucose tolerance or plasma insulin throughout the GTT” value in data set [2] (after five weeks of peptide administration, vs ScrAβ42) is “no difference”. The “glucose incorporation into TAG (14C-glucose labelling)” value in data set [2] (heart, FIG. 1C) is “greater”. For the same compound, the “total TAG” value in data set [2] (heart, FIG. 1D) was “increased”. Besides, in data set [3] (FIG. 2B), the “internal dimensions of the left ventricle (LVIDd)” value was “no effect”. Besides, the deceleration time entry in data set [3] (FIG. 2D) is on record as “increased”. The fractional shortening result in data set [3] (FIG. 2F) is on record as “reduced”. Moreover, the ejection fraction result in data set [3] (FIG. 2G) was “reduced”. The “E normalised by isovolumetric relaxation time (IVRT)” value in data set [3] (between groups, FIG. 2E) is “no significant difference”. For the same compound, the gross heart weight entry in data set [3] (five weeks Aβ42 vs ScrAβ42, FIG. 2A) is reported as “no effect”.
As for `CN1C(N)=N[C@](C)(c2cc(NC(=O)c3ccc(F)cn3)ccc2F)CS1(=O)=O` [Verubecestat, verubecestat], the “plasma Aβ40” value in data set [4] (25 mg/kg per day oral gavage, obese mice, FIG. 7A) was “decreased”. Further, in data set [4] (25 mg/kg per day oral gavage, obese mice, FIG. 7B), the “plasma Aβ42” value is “decreased”. Further, in data set [4] (4 weeks of daily treatment, 25 mg/kg oral, vehicle group 122%, FIG. 7C), the “DT after treatment, of baseline levels” value was 107%.
